# Where two headings read alike, the source gives them in different places.
# Columns and labels:
# Format in all cases: cell-based
# [1] = tested on: protein kinases (human kinome)
# [2] = molecular target: T1, protein kinases (human kinome) (Homo sapiens, UniProt O14965)
# T1 sequence (O14965 1-403): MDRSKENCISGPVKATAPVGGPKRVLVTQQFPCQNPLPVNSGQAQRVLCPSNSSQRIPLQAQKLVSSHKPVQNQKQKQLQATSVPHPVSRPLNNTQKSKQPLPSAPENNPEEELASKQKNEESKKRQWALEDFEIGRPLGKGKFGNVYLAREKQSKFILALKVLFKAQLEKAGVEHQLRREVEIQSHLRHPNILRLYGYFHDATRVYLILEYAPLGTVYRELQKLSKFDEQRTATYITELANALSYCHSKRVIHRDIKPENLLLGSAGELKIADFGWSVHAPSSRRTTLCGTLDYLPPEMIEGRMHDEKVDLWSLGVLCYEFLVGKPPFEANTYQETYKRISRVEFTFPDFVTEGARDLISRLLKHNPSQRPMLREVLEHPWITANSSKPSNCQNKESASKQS
# [3] = molecular target: protein kinases (human kinome) (Homo sapiens, UniProt P16591); details: for logFC of FER (P16591-1): down; for logFC of FER: FER P16591-1
# Chain of protein kinases (human kinome) (Homo sapiens, UniProt P16591) (P16591 whole entry): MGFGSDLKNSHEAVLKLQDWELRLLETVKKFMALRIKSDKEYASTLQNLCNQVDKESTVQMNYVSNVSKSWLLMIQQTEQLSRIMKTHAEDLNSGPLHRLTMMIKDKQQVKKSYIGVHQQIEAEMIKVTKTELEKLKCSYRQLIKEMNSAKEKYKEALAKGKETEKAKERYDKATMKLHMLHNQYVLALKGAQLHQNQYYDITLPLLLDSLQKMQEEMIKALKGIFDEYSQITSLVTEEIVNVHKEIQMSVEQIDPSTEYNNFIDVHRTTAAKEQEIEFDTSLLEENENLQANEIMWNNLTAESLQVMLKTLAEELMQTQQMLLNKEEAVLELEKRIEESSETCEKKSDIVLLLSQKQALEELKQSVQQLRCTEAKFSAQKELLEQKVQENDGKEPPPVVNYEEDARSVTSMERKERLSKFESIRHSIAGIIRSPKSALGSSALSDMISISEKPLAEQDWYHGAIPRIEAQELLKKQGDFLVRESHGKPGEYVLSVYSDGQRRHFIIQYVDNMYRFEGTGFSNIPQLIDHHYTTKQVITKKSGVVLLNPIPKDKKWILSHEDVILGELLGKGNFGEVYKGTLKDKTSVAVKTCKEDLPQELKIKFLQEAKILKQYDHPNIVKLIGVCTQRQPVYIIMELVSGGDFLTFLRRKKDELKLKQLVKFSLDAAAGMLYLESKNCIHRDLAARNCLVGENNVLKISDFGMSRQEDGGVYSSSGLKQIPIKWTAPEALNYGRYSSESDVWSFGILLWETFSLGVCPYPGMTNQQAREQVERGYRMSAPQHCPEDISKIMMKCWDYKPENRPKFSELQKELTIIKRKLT
# [4] = molecular target: protein kinases (human kinome) (Homo sapiens, UniProt P51451); details: for logFC BLK: BLK (P51451), direction down; for logFC of BLK: BLK P51451, experiment wp016; for logFC of BLK (P51451): down
# Chain of protein kinases (human kinome) (Homo sapiens, UniProt P51451) (P51451 whole entry): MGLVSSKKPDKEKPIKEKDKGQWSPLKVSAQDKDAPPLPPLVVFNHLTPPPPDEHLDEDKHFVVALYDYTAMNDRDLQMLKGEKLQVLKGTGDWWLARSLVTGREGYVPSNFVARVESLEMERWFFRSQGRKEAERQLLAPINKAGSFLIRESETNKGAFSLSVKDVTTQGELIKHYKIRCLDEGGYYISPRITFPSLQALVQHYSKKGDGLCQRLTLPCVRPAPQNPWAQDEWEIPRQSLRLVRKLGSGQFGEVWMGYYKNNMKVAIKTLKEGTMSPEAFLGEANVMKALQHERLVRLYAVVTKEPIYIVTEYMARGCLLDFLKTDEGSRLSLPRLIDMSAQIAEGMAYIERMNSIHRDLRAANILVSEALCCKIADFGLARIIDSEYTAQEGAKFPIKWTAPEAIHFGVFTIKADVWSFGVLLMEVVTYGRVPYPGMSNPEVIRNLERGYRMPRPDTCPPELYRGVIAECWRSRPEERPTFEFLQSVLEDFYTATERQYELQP
# [5] = molecular target: protein kinases (human kinome) (Homo sapiens, UniProt P53671); details: for logFC LIMK2: LIMK2 (P53671), down; for logFC of LIMK2: LIMK2 P53671
# Chain of protein kinases (human kinome) (Homo sapiens, UniProt P53671) (P53671 whole entry): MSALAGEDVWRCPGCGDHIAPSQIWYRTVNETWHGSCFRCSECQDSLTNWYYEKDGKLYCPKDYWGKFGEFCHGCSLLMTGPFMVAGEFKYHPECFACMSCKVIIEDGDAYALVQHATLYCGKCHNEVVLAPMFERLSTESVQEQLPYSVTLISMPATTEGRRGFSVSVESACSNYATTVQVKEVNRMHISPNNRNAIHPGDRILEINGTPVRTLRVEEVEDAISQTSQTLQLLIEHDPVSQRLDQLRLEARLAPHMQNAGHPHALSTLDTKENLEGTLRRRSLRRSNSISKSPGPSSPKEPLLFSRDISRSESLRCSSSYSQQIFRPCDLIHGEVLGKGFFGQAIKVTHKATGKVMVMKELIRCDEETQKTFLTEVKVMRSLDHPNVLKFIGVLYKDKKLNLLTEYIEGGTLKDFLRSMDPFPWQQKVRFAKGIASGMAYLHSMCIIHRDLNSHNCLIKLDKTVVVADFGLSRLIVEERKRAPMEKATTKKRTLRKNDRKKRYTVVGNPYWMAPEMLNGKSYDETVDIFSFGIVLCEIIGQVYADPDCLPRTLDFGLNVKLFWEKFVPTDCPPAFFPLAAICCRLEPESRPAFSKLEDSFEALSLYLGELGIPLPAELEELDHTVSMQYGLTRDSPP
# [6] = experiment wp107, direction of change down
smiles,measurement,setting,value
CC(C)S(=O)(=O)c1ccccc1Nc1nc(Nc2ccc(N3CCN(CCOCCNC(=O)CNc4cccc5c4C(=O)N(C4CCC(=O)NC4=O)C5=O)CC3)cc2)ncc1Cl (stereo not shown) [SK.3.91],logFC PRKAA1 (Q13131-2),[1]; experiment wp103,−0.5012
same,logFC LCK (P06239-3),"[1]; experiment wp103, direction of change down",−1.148
same,logFC ABL1 (P00519-2),[1]; experiment wp105,−0.333
same,logFC CDK9 (P50750-2),[1]; experiment wp105,−0.6775
same,logFC CDK16 (Q00536-2),[1]; experiment wp105,−0.6346
same,logFC PRKAA1 (Q13131-2),[1]; experiment wp105,−0.4413
same,logFC of CDK18 (Q07002-3),[1]; experiment wp105,−1.233
same,logFC of MARK2 (Q7KZI7-14),[1]; experiment wp105,−0.4159
same,logFC ABL1 (P00519-2),[1]; experiment wp107,−0.4711
same,logFC CDK16 (Q00536-2),[1]; experiment wp107,−0.4701
same,logFC PRKAA1 (Q13131-2),[1]; experiment wp107,−0.6352
same,logFC ULK3 (Q6PHR2-4),[1]; experiment wp107,−1.084
same,logFC LCK (P06239-3),[1]; [6],−1.575
same,logFC TGFBR1 (P36897-2),[1]; [6],−0.5264
same,logFC ULK3 (Q6PHR2-4),[1]; [6],−1.084
same,logFC CDK9 (P50750-2),"[1]; experiment wp133, 2 hr",−0.3971
same,logFC PRKAA1 (Q13131-2),"[1]; experiment wp133, 2 hr",−0.3804
same,logFC LCK (P06239-3),"[1]; experiment wp133, 2 hr, direction of change down",−0.5352
same,logFC ABL1 (P00519-2),"[1]; experiment wp133, 4 hr",−0.3801
same,logFC CDK9 (P50750-2),"[1]; experiment wp133, 4 hr",−1.037
same,logFC PRKAA1 (Q13131-2),"[1]; experiment wp133, 4 hr",−0.6752
same,logFC RPS6KA1 (Q15418-2),"[1]; experiment wp133, 4 hr",−0.3598
same,logFC of MARK2 (Q7KZI7-14),"[1]; experiment wp133, 4 hr",−0.4086
same,logFC LCK (P06239-3),"[1]; experiment wp133, 4 hr, direction of change down",−1.277
same,logFC of CDK12 (Q9NYV4-2),"[1]; experiment wp160, 4 hr",−0.8448
same,logFC MAP3K12,"[1]; protein MAP3K12 (Q12852-2), experiment wp105, down",−0.6931
same,logFC TGFBR1,"[1]; protein TGFBR1 (P36897-2), experiment wp107, down",−0.5264
same,logFC TNK1,"[1]; protein TNK1 (Q13470-2), experiment wp114, down",−0.7394
same,logFC AURKA (O14965),"[2]; Experiment wp160, 2 hr",−0.8456
same,logFC AURKA (O14965),[2]; Experiment wp172,−2.048
same,logFC AURKA (O14965),[2]; experiment wp016,−1.908
same,logFC AURKA (O14965),"[2]; experiment wp016, 1 uM",−3.024
same,logFC AURKA (O14965),[2]; experiment wp103,−1.587
same,logFC AURKA (O14965),[2]; experiment wp105,−1.837
same,logFC AURKA (O14965),[2]; experiment wp107,−3.069
same,logFC AURKA (O14965),[2]; experiment wp114,−1.228
same,logFC AURKA (O14965),"[2]; experiment wp133, 1 hr",−1.329
same,logFC AURKA (O14965),"[2]; experiment wp133, 2 hr",−2.092
same,logFC AURKA (O14965),"[2]; experiment wp133, 4 hr",−3.745
same,logFC AURKA (O14965),"[2]; experiment wp160, 1 hr",−0.547
same,logFC AURKA (O14965),"[2]; experiment wp160, 4 hr",−1.391
same,logFC of FER (P16591-1),"[3]; Experiment wp016, 1 uM",−3.321
same,logFC of FER (P16591-1),[3]; Experiment wp016,−2.645
same,logFC of FER (P16591-1),[3]; Experiment wp103,−2.81
same,logFC of FER (P16591-1),[3]; Experiment wp105,−2.857
same,logFC of FER (P16591-1),[3]; Experiment wp107,−2.657
same,logFC of FER (P16591-1),"[3]; Experiment wp133, 1 hr",−1.132
same,logFC of FER (P16591-1),"[3]; Experiment wp133, 2 hr",−2.153
same,logFC of FER (P16591-1),"[3]; Experiment wp133, 4 hr",−2.426
same,logFC of FER (P16591-1),"[3]; Experiment wp160, 1 hr",−0.8534
same,logFC of FER (P16591-1),"[3]; Experiment wp160, 2 hr",−1.88
same,logFC of FER (P16591-1),"[3]; Experiment wp160, 4 hr",−1.987
same,logFC of FER,[3]; experiment wp016,−2.646
same,logFC of FER,"[3]; experiment wp016, 1 uM",−3.321
same,logFC of FER,[3]; experiment wp103,−2.81
same,logFC of FER,[3]; experiment wp105,−2.857
same,logFC of FER,[3]; experiment wp107,−2.657
same,logFC of FER,"[3]; experiment wp133, 1 hr",−1.132
same,logFC of FER,"[3]; experiment wp133, 2 hr",−2.153
same,logFC of FER,"[3]; experiment wp133, 4 hr",−2.426
same,logFC of FER,"[3]; experiment wp160, 1 hr",−0.8534
same,logFC of FER,"[3]; experiment wp160, 2 hr",−1.88
same,logFC of FER,"[3]; experiment wp160, 4 hr",−1.987
same,logFC BLK,[4]; experiment wp103,−1.625
same,logFC BLK,[4]; experiment wp107,−1.649
same,logFC BLK,"[4]; experiment wp133, 1 hr",−0.3727
same,logFC BLK,"[4]; experiment wp133, 2 hr",−0.8217
same,logFC BLK,"[4]; experiment wp133, 4 hr",−1.49
same,logFC BLK,"[4]; experiment wp160, 2 hr",−0.8744
same,logFC BLK,"[4]; experiment wp160, 4 hr",−1.678
same,logFC of BLK,[4],−1.446
same,logFC of BLK,[4]; 1 uM,−1.977
same,logFC of BLK (P51451),"[4]; Experiment wp016, 1 uM",−1.977
same,logFC of BLK (P51451),[4]; Experiment wp016,−1.446
same,logFC of BLK (P51451),[4]; Experiment wp103,−1.625
same,logFC of BLK (P51451),[4]; Experiment wp107,−1.649
same,logFC of BLK (P51451),"[4]; Experiment wp133, 1 hr",−0.3727
same,logFC of BLK (P51451),"[4]; Experiment wp133, 2 hr",−0.8217
same,logFC of BLK (P51451),"[4]; Experiment wp133, 4 hr",−1.49
same,logFC of BLK (P51451),"[4]; Experiment wp160, 2 hr",−0.8744
same,logFC of BLK (P51451),"[4]; Experiment wp160, 4 hr",−1.678
same,logFC LIMK2,"[5]; experiment wp016, 1 uM",−1.441
same,logFC LIMK2,[5]; experiment wp016,−1.061
same,logFC LIMK2,[5]; experiment wp103,−1.431
same,logFC LIMK2,[5]; experiment wp107,−1.878
same,logFC LIMK2,[5]; experiment wp114,−0.8414
same,logFC LIMK2,"[5]; experiment wp133, 2 hr",−0.7575
same,logFC LIMK2,"[5]; experiment wp133, 4 hr",−1.342
same,logFC LIMK2,[5]; experiment wp172,−0.8984
same,logFC of LIMK2,[5]; experiment wp016,−1.061
same,logFC of LIMK2,"[5]; experiment wp016, 1 uM",−1.441
same,logFC of LIMK2,[5]; experiment wp103,−1.431
same,logFC of LIMK2,[5]; experiment wp107,−1.878
same,logFC of LIMK2,[5]; experiment wp114,−0.8414
same,logFC of LIMK2,"[5]; experiment wp133, 2 hr",−0.7575
same,logFC of LIMK2,"[5]; experiment wp133, 4 hr",−1.342
same,logFC of LIMK2,[5]; experiment wp172,−0.8984
